{"source": "patent US7049066B2", "about": "“Diagnosis and treatment of myocardial failure” (The Regents of the University of Colorado, priority 1997, dated 2006)", "key": {"[1]": {"test_system": "α-MHC", "details": "hypothyroid rats; cited from earlier work"}, "[2]": {"test_system": "isolated right ventricular (RV) trabeculae from end-stage failing human hearts", "details": "1 nM T3, incubated for 4 or 12 hours"}}}
{"smiles": "O=C(O)CCc1cc(I)c(Oc2ccc(O)cc2)c(I)c1", "note": "[3,5-diiodothyroproprionic acid]", "values": [{"measurement": "production of α-MHC", "setting": "[1]", "result": "increase the production of (α-MHC"}]}
{"smiles": "N[C@@H](Cc1cc(I)c(Oc2ccc(O)c(I)c2)c(I)c1)C(=O)O", "note": "[T3, 3,5,3′-triiodo-L-thyronine]", "values": [{"measurement": "SRCA gene expression, T3 group compared to control group", "setting": "[2]", "result": "no significant differences"}, {"measurement": "adrenergic receptor gene expression, T3 group compared to control group", "setting": "[2]", "result": "no significant differences"}, {"measurement": "% α-MHC isoform mRNA present following incubation", "setting": "[2]; p < .05 vs. no T3", "result": "24.5 ± 9.29", "unit": "%"}, {"measurement": "% β-MHC isoform mRNA present following incubation", "setting": "[2]; p < .05 vs. no T3", "result": "75.5 ± 9.29", "unit": "%"}]}
